We go through one molecule from US10633371B2, “EZH2 inhibitors and uses thereof” (Dana-Farber Cancer Institute, Inc., priority 2016, dated 2020).

One experiment addresses EZH2 (Homo sapiens, UniProt Q15910). As to the kind of experiment: Inhibitory activity and time dependence against EZH2 (FIG. 2A). The class given is biochemical. Particulars: result in words. From the text: (§1) As depicted in FIG. 2A, Compounds EZ-40, EZ-49, EZ-51, EZ-52, EZ-53, and JQ-80 were profiled for inhibitory activity and time dependence against EZH1 and EZH2.
A further experiment concerns the target EZH1 (Homo sapiens, UniProt Q92800). The experiment in a line: Inhibitory activity and time dependence against EZH1 (FIG. 2A). The class given is biochemical. The conditions noted are these: result in words.
Text: as §1

Chain of EZH2 (Q15910 whole entry): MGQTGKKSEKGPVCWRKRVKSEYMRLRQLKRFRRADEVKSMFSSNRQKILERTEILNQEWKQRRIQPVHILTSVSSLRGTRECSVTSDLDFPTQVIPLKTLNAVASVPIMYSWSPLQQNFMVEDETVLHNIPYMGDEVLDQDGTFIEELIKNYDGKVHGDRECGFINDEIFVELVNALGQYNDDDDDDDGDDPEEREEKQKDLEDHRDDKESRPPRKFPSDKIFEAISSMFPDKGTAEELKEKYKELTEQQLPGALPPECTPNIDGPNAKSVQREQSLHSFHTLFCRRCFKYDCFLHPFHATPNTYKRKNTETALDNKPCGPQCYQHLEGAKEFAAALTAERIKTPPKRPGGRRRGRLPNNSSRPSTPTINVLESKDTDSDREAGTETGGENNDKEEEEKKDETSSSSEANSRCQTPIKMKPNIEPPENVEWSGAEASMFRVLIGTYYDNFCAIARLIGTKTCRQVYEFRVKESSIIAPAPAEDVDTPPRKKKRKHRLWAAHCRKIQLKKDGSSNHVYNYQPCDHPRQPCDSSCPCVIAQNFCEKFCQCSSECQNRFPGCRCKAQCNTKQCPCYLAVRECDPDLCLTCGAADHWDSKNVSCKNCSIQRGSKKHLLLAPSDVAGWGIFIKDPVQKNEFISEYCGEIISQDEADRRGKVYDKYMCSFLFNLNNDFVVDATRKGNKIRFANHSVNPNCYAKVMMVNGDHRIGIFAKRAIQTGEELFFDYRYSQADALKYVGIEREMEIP
Chain of EZH2 (O75530 whole entry partner): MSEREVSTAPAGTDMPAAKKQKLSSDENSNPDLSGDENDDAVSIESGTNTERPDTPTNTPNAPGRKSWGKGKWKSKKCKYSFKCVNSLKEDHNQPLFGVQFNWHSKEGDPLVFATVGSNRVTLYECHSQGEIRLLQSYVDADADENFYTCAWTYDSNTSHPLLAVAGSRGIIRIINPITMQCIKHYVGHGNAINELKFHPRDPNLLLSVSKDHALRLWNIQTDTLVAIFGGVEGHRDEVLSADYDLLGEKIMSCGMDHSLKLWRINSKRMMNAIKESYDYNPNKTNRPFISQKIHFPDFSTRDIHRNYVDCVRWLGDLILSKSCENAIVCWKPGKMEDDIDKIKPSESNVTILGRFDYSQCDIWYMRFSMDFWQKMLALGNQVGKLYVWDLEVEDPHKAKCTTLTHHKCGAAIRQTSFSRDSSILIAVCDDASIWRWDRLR
Chain of EZH2 (Q15022 whole entry partner): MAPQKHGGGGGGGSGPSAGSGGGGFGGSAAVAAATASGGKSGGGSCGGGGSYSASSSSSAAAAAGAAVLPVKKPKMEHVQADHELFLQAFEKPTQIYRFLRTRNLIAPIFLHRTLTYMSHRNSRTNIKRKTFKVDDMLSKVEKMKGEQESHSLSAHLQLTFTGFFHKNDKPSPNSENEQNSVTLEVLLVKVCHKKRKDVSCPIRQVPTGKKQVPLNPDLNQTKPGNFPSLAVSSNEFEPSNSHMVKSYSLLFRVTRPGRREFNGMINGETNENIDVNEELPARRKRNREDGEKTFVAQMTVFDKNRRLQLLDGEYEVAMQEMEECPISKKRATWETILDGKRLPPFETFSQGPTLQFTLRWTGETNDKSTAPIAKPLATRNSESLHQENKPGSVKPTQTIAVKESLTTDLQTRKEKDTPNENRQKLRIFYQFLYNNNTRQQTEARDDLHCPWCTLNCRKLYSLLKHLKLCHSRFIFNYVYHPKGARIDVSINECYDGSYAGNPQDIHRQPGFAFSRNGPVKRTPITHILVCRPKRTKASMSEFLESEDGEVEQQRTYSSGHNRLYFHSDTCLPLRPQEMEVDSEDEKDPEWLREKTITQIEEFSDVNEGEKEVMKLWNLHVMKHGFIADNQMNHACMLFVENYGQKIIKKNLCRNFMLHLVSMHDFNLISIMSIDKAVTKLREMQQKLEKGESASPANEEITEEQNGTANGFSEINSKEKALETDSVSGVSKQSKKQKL
Chain of EZH1 (Q92800 whole entry): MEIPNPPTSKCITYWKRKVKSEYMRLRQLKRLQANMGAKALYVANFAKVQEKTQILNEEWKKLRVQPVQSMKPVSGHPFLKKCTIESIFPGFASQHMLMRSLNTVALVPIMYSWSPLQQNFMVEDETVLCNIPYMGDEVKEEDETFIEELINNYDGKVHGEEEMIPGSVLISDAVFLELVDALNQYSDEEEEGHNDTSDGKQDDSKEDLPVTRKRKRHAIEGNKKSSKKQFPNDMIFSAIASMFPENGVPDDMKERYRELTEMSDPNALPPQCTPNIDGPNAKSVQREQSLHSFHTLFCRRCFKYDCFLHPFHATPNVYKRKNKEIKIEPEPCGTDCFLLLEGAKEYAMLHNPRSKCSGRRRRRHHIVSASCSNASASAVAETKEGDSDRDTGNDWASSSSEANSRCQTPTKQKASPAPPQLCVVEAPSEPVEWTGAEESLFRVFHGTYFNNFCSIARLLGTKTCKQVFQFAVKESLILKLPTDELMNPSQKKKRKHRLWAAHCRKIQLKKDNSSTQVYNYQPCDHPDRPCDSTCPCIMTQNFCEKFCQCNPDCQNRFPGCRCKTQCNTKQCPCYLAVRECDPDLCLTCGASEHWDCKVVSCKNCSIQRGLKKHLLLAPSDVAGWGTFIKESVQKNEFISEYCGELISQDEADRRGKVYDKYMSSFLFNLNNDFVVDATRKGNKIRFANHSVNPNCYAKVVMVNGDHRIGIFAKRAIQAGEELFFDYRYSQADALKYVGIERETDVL
Chain of EZH1 (O75530 whole entry partner): as the sequence (O75530 whole entry partner) above
Chain of EZH1 (Q15022 whole entry partner): as the sequence (Q15022 whole entry partner) above

`C=CC(=O)N(c1cc(-c2ccc(N3CCN(C)CC3)nc2)cc(C(=O)NCc2c(CCC)cc(C)[nH]c2=O)c1C)C1CCOCC1` [EZ-53]: on EZH2, the inhibitory activity result is listed as “high potency”, the mode of inhibition entry is listed as “irreversible inhibitor” and the time dependence entry was “time dependency”. Besides, at EZH1, the inhibitory activity result is “high potency”, the mode of inhibition result is on record as “irreversible inhibitor” and the time dependence entry is “time dependency”.
